# Test results as given in patent publication US7897776B2, “Sulfonamide containing compounds for treatment of inflammatory disorders” (Salutria Pharmaceuticals LLC, priority 2007, dated 2011).
# Where a name gives a salt, the structure may show the parent alone.
# Key:
# [1] = test system: Methacholine-induced airway reactivity; test: Mouse model of asthma: methacholine-induced airway reactivity (Penh) in ovalbumin-sensitized and challenged mice; type: in vivo; conditions: % inhibition of the PenH vs McH dose AUC compared with vehicle control; for inhibition in vivo at 50 mg/kg: Mus musculus, po, 768 h, 50 mg/kg p.o., dosed days 26-32, measured day 32, ovalbumin-sensitized male Balb/CJ mice, read-out: Reduction of Penh AUC at 50 mg/kg p.o.
# Description: Male 5-6 week old Balb/CJ mice were obtained from Jackson Laboratories (Bar Harbor, Me.). All experimental animals were used in accordance to Institutional Animal Care and Use Committee of AtheroGenics, Inc. Mice were sensitized by administering an intraperitoneal injection of 20 μg of ovalbumin (Calbiochem, La Jolla, Calif.) adsorbed in 2 mg of alum (Imject Alum; Pierce, Rockford, Ill.) on day 0 and 14. A group of mice received saline and served as negative control animals. The mice were challenged by aerosol exposure to ovalbumin (1% [wt/vol]) for 25 minutes on 3 consecutive days (days 28, 29, and 30) in a plexiglass exposure chamber coupled to an Aeroneb nebulizer (Buxco Electronics, Wilmington, N.C.). Experimental compounds were dissolved in Glycofurol/PEG 300/Tween (35%/55%/10%) (Sigma-Aldrich; Milwaukee, Wis.). Animals were dosed orally with either test compound or vehicle (6 ml/kg dosing volume) on days 26-32 of study. Compound or vehicle was administered 2 hour before the aerosol challenge on days 28, 29, and 30 and 1 hour before airway reactivity measurement on day 32.
# Methacholine-induced airway reactivity was assessed on day 32. Methacholine was administered in increasing concentrations ([…], 1.5, 3, 6, 12, 25, and 50 mg/ml) to unrestrained mice. Increases in airway resistance to Methacholine were determined as enhanced pause, (Penh) values, during and after the exposure (6-minute total analysis time). Mice were then humanely euthanized with an overdose of ketamine/xylazine and plasma samples collected for determination of drug levels. The data is presented as the % inhibition of the PenH vs McH dose AUC compared with the vehicle control.
# Data analysis was conducting using the software package, JMP (SAS Institute Inc; Cary, N.C.). The Dunnett's multiple comparison test was used to compare treatment group means to the vehicle control group. P values of less than 0.05 were considered statistically significant. The data (Table 1) is presented as the % inhibition of the PenH vs McH dose AUC compared with the vehicle control.
melting point,Compound,inhibition in vivo at 50 mg/kg [1],"Reduction of Penh AUC at 50 mg/kg p.o. ([1]; dosed days 26-32, measured day 32, ovalbumin-sensitized male Balb/CJ mice, 50 mg/kg)"
,"Cn1c(C(=O)O)ccc1S(=O)(=O)N1CCC(CCO)(Sc2cc(C(C)(C)C)c(O)c(C(C)(C)C)c2)CC1 [Example 1, 5-[4-(3,5-Di-tert-butyl-4-hydroxy-phenylsulfanyl)-4-(2-hydroxy-ethyl)-piperidine-1-sulfonyl]-1-methyl-1H-pyrrole-2-carboxylic acid]",< 20%,
126 to 127 °C,"Cn1c(CO)ccc1S(=O)(=O)N1CCC(CCO)(Sc2cc(C(C)(C)C)c(O)c(C(C)(C)C)c2)CC1 [Example 2, 2,6-Di-tert-butyl-4-[4-(2-hydroxy-ethyl)-1-(5-hydroxymethyl-1-methyl-1H-pyrrole-2-sulfonyl)-piperidin-4-ylsulfanyl]-phenol]",> 40%,
,"Cc1[nH]c(C(=O)O)c(C)c1S(=O)(=O)N1CCC(Sc2cc(C(C)(C)C)c(O)c(C(C)(C)C)c2)CC1 [Example 3, 4-[4-(3,5-Di-tert-butyl-4-hydroxy-phenylsulfanyl)-piperidine-1-sulfonyl]-3,5-dimethyl-1H-pyrrole-2-carboxylic acid]",20 to 40%,
,"Cn1c(C(=O)O)ccc1S(=O)(=O)N1CCC(Sc2cc(C(C)(C)C)c(O)c(C(C)(C)C)c2)CC1 [Example 4, 5-[4-(3,5-Di-tert-butyl-4-hydroxy-phenylsulfanyl)-piperidine-1-sulfonyl]-1-methyl-1H-pyrrole-2-carboxylic acid]",> 40%,
64 to 65 °C,"Cn1c(CO)ccc1S(=O)(=O)N1CCC(Sc2cc(C(C)(C)C)c(O)c(C(C)(C)C)c2)CC1 [Example 5, 2,6-Di-tert-butyl-4-[1-(5-hydroxymethyl-1-methyl-1H-pyrrole-2-sulfonyl)-piperidin-4-ylsulfanyl]-phenol]",> 40%,
,"Cn1c(C(=O)O)ccc1S(=O)(=O)N1CCC(Sc2cc(C(C)(C)C)c(OCCCO)c(C(C)(C)C)c2)CC1 [Example 6, 5-{4-[3,5-Di-tert-butyl-4-(3-hydroxy-propoxy)-phenylsulfanyl]-piperidine-1-sulfonyl}-1-methyl-1H-pyrrole-2-carboxylic acid]",< 20%,
,"Cn1c(C(=O)O)ccc1S(=O)(=O)N1CCC([S+]([O-])c2cc(C(C)(C)C)c(O)c(C(C)(C)C)c2)CC1 (stereo not shown) [Example 7, 5-[4-(3,5-Di-tert-butyl-4-hydroxy-benzenesulfinyl)-piperidine-1-sulfonyl]-1-methyl-1H-pyrrole-2-carboxylic acid]",20 to 40%,
,"CC(C)(C)c1cc(SC2CCN(S(=O)(=O)c3ncc(C(=O)O)[nH]3)CC2)cc(C(C)(C)C)c1O [Example 8, 2-[4-(3,5-Di-tert-butyl-4-hydroxy-phenylsulfanyl)-piperidine-1-sulfonyl]-3H-imidazole-4-carboxylic acid]",20 to 40%,
122 to 123 °C,"CC(C)(C)c1cc(SC2CCN(S(=O)(=O)c3ncc(CO)[nH]3)CC2)cc(C(C)(C)C)c1O [Example 9, 2,6-Di-tert-butyl-4-[1-(5-hydroxymethyl-1H-imidazole-2-sulfonyl)-piperidin-4-ylsulfanyl]-phenol]",20 to 40%,
,"CC(C)(C)c1cc(SC2CCN(S(=O)(=O)c3ncc(C(C)(C)O)[nH]3)CC2)cc(C(C)(C)C)c1O [Example 12, 2,6-Di-tert-butyl-4-{1-[5-(1-hydroxy-1-methyl-ethyl)-1H-imidazole-2-sulfonyl]-piperidin-4-ylsulfanyl}-phenol]",< 20%,
,"Cn1c(C(=O)O)ccc1S(=O)(=O)N1CC[C@@H](Sc2cc(C(C)(C)C)c(O)c(C(C)(C)C)c2)C1 [Example 13, (R)-5-[3-(3,5-Di-tert-butyl-4-hydroxy-phenylsulfanyl)-pyrrolidine-1-sulfonyl]-1-methyl-1H-pyrrole-2-carboxylic acid]",< 20%,
,"Cn1c(C(=O)O)ccc1S(=O)(=O)N1CC[C@H](Sc2cc(C(C)(C)C)c(O)c(C(C)(C)C)c2)C1 [Example 14, (S)-5-[3-(3,5-Di-tert-butyl-4-hydroxy-phenylsulfanyl)-pyrrolidine-1-sulfonyl]-1-methyl-1H-pyrrole-2-carboxylic acid]",< 20%,
68 to 70 °C,"Cn1c(CO)ccc1S(=O)(=O)N1CC[C@H](Sc2cc(C(C)(C)C)c(O)c(C(C)(C)C)c2)C1 [Example 15, (S)-2,6-Di-tert-butyl-4-[1-(5-hydroxymethyl-1-methyl-1H-pyrrole-2-sulfonyl)-pyrrolidin-3-ylsulfanyl]-phenol]",< 20%,
,"Cn1c(C(=O)O)ccc1S(=O)(=O)N1CCC(Sc2cc(C(C)(C)C)c(O)c(C(C)(C)C)c2)CC1 [Example 16, 5-[4-(3,5-Di-tert-butyl-4-hydroxy-phenylsulfanyl)-piperidine-1-sulfonyl]-1-methyl-1H-pyrrole-2-carboxylic acid L-arginine salt]",< 20%,
,"Cn1c(C(=O)O)ccc1S(=O)(=O)N1CCC(Sc2cc(C(C)(C)C)c(O)c(C(C)(C)C)c2)CC1 [Example 18, 5-[4-(3,5-Di-tert-butyl-4-hydroxy-phenylsulfanyl)-piperidine-1-sulfonyl]-1-methyl-1H-pyrrole-2-carboxylic acid tris(hydroxymethyl)aminomethane (THAM) Salt]",,1 (>40% and statistically significant)
